Reference: patent publication US20220330549A1, “USE OF N-BENZYLBENZAMIDE-BASED COMPOUND AS HERBICIDE” (Northwest A&F University, priority 2020, published 2022)

Key:
Type in all cases: in vivo
Amaranthus retroflexus [1] = experiment: Herbicidal activity test for indoor post-emergence spraying on stems and leaves; set-up: key: grade level by weed remaining vs blank control, e.g. 5 = 10.1-15%; details: 150 g a.i./ha, visual inspection 21 days after treatment
Procedure, shortened: (§1)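 Following national standard NY/T 1155.4-2006, seedlings raised in a greenhouse receive stem-and-leaf spraying after emergence; 21 days on, surviving weed is compared by eye with the blank control area and assigned a graded level (e.g., level 6 = 15.1–25%).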

Barnyard grass [2] = experiment: as above; set-up: key: grade level by weed remaining vs blank control, e.g. 5 = 10.1-15%; details: 150 g a.i./ha, visual inspection 21 days after treatment
Procedure, shortened: as §1

Piemarker [3] = experiment: as above; set-up: key: grade level by weed remaining vs blank control, e.g. 5 = 10.1-15%; details: 150 g a.i./ha, visual inspection 21 days after treatment
Procedure, shortened: as §1

green bristlegrass [4] = experiment: as above; set-up: key: grade level by weed remaining vs blank control, e.g. 5 = 10.1-15%; details: 150 g a.i./ha, visual inspection 21 days after treatment
Procedure, shortened: as §1

Digitaria sanguinalis [5] = experiment: as above; set-up: key: grade level by weed remaining vs blank control, e.g. 5 = 10.1-15%; details: 150 g a.i./ha, visual inspection 21 days after treatment
Procedure, shortened: as §1

Humulus scandens [6] = experiment: as above; set-up: key: grade level by weed remaining vs blank control, e.g. 5 = 10.1-15%; details: 150 g a.i./ha, visual inspection 21 days after treatment
Procedure, shortened: as §1

Amaranthus retroflexus [7] = experiment: Field test for weed control in a corn field; details: 150 g a.i./ha, 30 days after treatment
Procedure, shortened: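 Post-emergence control of Amaranthus retroflexus was assessed in corn plots using the GB/T 17980.42-2000 method. Emulsifiable concentrates (10%) in water were applied by spraying at the 2- to 5-leaf crop stage on 20 m^2 plots, four replicates each, alongside a mesotrione 25% oil dispersion reference. Herbicidal activity was scored on 1-9 levels by weed amount relative to blank control areas.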

Acalypha australis = experiment: Field test for weed control in a corn field; details: 150 g a.i./ha, after treatment
Procedure, shortened: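 Herbicidal activity against weeds was assessed in corn plots by the GB/T 17980.42-2000 method. Corn at the 2–5 leaf stage received water sprays of 10% emulsifiable concentrates at 150 g(a.i.)/ha, four repeats per treatment over 20 m^2. A 25% mesotrione oil dispersion was the reference. Damage symptoms and severity were rated on levels 1-9 relative to weeds in the blank control area.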

Barnyard grass [8] = experiment: Field test for weed control in a corn field; details: 150 g a.i./ha, 30 days after treatment
Procedure, shortened: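 Herbicidal activity against barnyard grass was assessed in corn field plots of 20 m^2, with four replicates per treatment. Compounds were applied as water-diluted 10% emulsifiable concentrates at 150 g(a.i.)/ha at the 2-5 leaf corn stage, with 25% mesotrione oil dispersion as the reference agent. Damage was scored on a 1-9 scale against untreated blank plots.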

Solanum nigrum = experiment: Field test for weed control in a corn field; details: 150 g a.i./ha, 30 days after treatment
Procedure, shortened: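 In a corn field trial based on GB/T 17980.42-2000, 10% emulsifiable concentrates diluted in water were sprayed at 150 g(a.i.)/ha at the 2 to 5 leaf stage of corn. Each treatment used 20 m^2 plots and was repeated 4 times, with 25% mesotrione oil dispersion as the reference agent. Solanum nigrum damage was scored on a 1-9 scale against blank control plots.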

Portulaca oleracea = experiment: Field test for weed control in a corn field; details: 150 g a.i./ha, after treatment
Procedure, shortened: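 Post-emergence weed control was evaluated in a corn field by the GB/T 17980.42-2000 method. Emulsifiable concentrates (10%) in water were applied as sprays at 150 g(a.i.)/ha at the 2-5 leaf corn stage, in four replicate 20 m^2 plots. A 25% mesotrione oil dispersion served as control agent. Effects were graded 1-9 relative to weed remaining in blank control areas.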

goosegrass = experiment: Field test for weed control in a corn field; details: 150 g a.i./ha, after treatment
Procedure, shortened: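 In this field trial in corn, run per GB/T 17980.42-2000, test agents prepared as 10% emulsifiable concentrates were applied in water as sprays at 150 g(a.i.)/ha at the 2- to 5-leaf corn stage. Each treatment covered 20 m^2 and was repeated 4 times. Goosegrass control was scored 1-9 relative to weed remaining in blank control areas.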

Convolvulus arvensis = experiment: Field test for weed control in a corn field; details: 150 g a.i./ha, after treatment
Procedure, shortened: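 Post-emergence herbicidal activity on Convolvulus arvensis was scored in a corn field on a 1-9 scale, based on symptoms and damage severity. Each level corresponds to the weed remaining as a percentage of the blank control area. Sprays of 10% emulsifiable concentrate at 150 g(a.i.)/ha went on at the corn 2–5 leaf stage, with four replicates of 20 m^2 per treatment.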

green bristlegrass [9] = experiment: Field test for weed control in a corn field; details: 150 g a.i./ha, after treatment
Procedure, shortened: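 Herbicidal activity against green bristlegrass was assessed in corn field plots of 20 m^2 per GB/T 17980.42-2000. Test agents, formulated as 10% emulsifiable concentrates, were applied in water at 150 g(a.i.)/ha at the corn 2 leaves to 5 leaves stage, repeated 4 times. A 25% mesotrione oil dispersion served as the control agent, and weed damage was rated on levels 1-9.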

Chenopodium album = experiment: Field test for weed control in a corn field; details: 150 g a.i./ha, after treatment
Procedure, shortened: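 Field weed-control testing in corn, run per GB/T 17980.42-2000, scored Chenopodium album on a 1-9 level scale, where each level matches a percentage range of weed remaining relative to the blank control area. Sprays of 10% emulsifiable concentrates in water delivered 150 g(a.i.)/ha at the corn 2-leaf to 5-leaf stage on 20 m^2 plots, four replicates each. Mesotrione 25% oil dispersion served as reference.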

Digitaria sanguinalis [10] = experiment: Field test for weed control in a corn field; details: 150 g a.i./ha, after treatment
Procedure, shortened: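 Field trial in a corn field following GB/T 17980.42-2000. Test compounds were formulated as 10% emulsifiable concentrates, diluted in water and sprayed post-emergence at 150 g(a.i.)/ha when corn had 2 to 5 leaves, with 4 replicates on 20 m^2 plots. Control of Digitaria sanguinalis was scored on a 1-9 scale based on weed damage relative to the untreated blank area.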

nutgrass flatsedge = experiment: Field test for weed control in a corn field; details: 150 g a.i./ha, after treatment
Procedure, shortened: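 Herbicidal effect on nutgrass flatsedge was measured in a field planted with corn, using the GB/T 17980.42-2000 method. Emulsifiable concentrates (10%) in water were sprayed at 150 g(a.i.)/ha during the 2-leaf to 5-leaf corn stage, on 20 m^2 plots repeated 4 times. 25% mesotrione oil dispersion was the control agent. Activity was scored from 1 to 9 by weed remaining relative to blank control plots.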

Barnyard grass [11] = experiment: Herbicidal activity test for indoor pre-emergence soil treatment; set-up: key: level 1-9; higher = more weed remaining vs blank control; details: 150 g a.i./ha, visual inspection 21 days after treatment
Procedure, shortened: (§2)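 Pre-emergence soil spray per NY/T 1155.3-2006: weed seeds sown in moistened neutral sandy loam (organic content ≤2%), covered with 0.5–2.0 cm soil, then sprayed 24 h later with a water-diluted 10% emulsifiable concentrate at 150 g(a.i.)/ha. Visual rating after 21 days on a 1–9 scale.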

Piemarker [12] = experiment: as above; set-up: key: level 1-9; higher = more weed remaining vs blank control; details: 150 g a.i./ha, visual inspection 21 days after treatment
Procedure, shortened: as §2

green bristlegrass [13] = experiment: as above; set-up: key: level 1-9; higher = more weed remaining vs blank control; details: 150 g a.i./ha, visual inspection 21 days after treatment
Procedure, shortened: as §2

Amaranthus retroflexus [14] = experiment: as above; set-up: key: 1-9 levels; higher = more weed remaining vs blank control; details: 150 g a.i./ha, visual inspection 21 days after treatment
Procedure, shortened: as §2

Digitaria sanguinalis [15] = experiment: as above; set-up: key: 1-9 levels; higher = more weed remaining vs blank control; details: 150 g a.i./ha, visual inspection 21 days after treatment
Procedure, shortened: as §2

Humulus scandens [16] = experiment: as above; details: 150 g a.i./ha, visual inspection 21 days after treatment
Procedure, shortened: as §2

Cyperaceae = experiment: Post-emergence herbicidal activity test in a paddy field; set-up: key: level scale; higher level = more weed left vs blank control; details: 150 g a.i./ha (penoxsulam control 250 g(a.i.)/h)
Procedure, shortened: (§3)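 Efficacy was visually estimated 15 and 30 days after spraying, grading weed coverage relative to an untreated neighbouring plot (level 2 = 0 to 2.5%, level 9 = 67.6 to 100%). Treatments were 150 g(a.i.)/ha from 10% emulsifiable concentrates applied at the 4-5 leaf rice stage, four repeats of 50 m^2 each.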

Broadleaf weed = experiment: as above; set-up: key: level scale; higher level = more weed left vs blank control; details: 150 g a.i./ha (penoxsulam control 250 g(a.i.)/h)
Procedure, shortened: as §3

Gramineae = experiment: as above; set-up: key: level scale; higher level = more weed left vs blank control; details: 150 g a.i./ha (penoxsulam control 250 g(a.i.)/h)
Procedure, shortened: as §3

Compound: COc1ccccc1C(=O)NCc1cccc(Cl)c1 [Compound A09, N-(3-chlorobenzyl)-2-methoxybenzamide]
- Herbicidal Activity Amaranthus retroflexus (Amaranthus retroflexus [1]): 1
- Herbicidal Activity Barnyard grass (Barnyard grass [2]): 1
- Herbicidal Activity Piemarker (Piemarker [3]): 1
- Herbicidal Activity Green bristlegrass (green bristlegrass [4]): 2 (equivalent to 0 to 2.5% of the weed in the blank control area)
- Herbicidal Activity Digitaria sanguinalis (Digitaria sanguinalis [5]): 1
- Herbicidal Activity Humulus scandens (Humulus scandens [6]): 1
- Post-emergence weed control effect, Amaranthus retroflexus (Amaranthus retroflexus [7]): 1
- Post-emergence weed control effect, Acalypha australis (Acalypha australis): 2 (equivalent to 0 to 2.5% of the weed in the blank control area)
- Post-emergence weed control effect, Barnyard grass (Barnyard grass [8]): 2 (equivalent to 0 to 2.5% of the weed in the blank control area)
- Post-emergence weed control effect, Solanum nigrum (Solanum nigrum): 2 (equivalent to 0 to 2.5% of the weed in the blank control area)
- Post-emergence weed control effect, Portulaca oleracea (Portulaca oleracea): 1
- Post-emergence weed control effect, Goose grass (goosegrass): 1
- Post-emergence weed control effect, Convolvulus arvensis (Convolvulus arvensis): 2 (equivalent to 0 to 2.5% of the weed in the blank control area)
- Post-emergence weed control effect, Green bristlegrass (green bristlegrass [9]): 2 (equivalent to 0 to 2.5% of the weed in the blank control area)
- Post-emergence weed control effect, Chenopodium album (Chenopodium album): 1
- Post-emergence weed control effect, Digitaria sanguinalis (Digitaria sanguinalis [10]): 2 (equivalent to 0 to 2.5% of the weed in the blank control area)
- Post-emergence weed control effect, Nutgrass flatsedge (nutgrass flatsedge): 2 (equivalent to 0 to 2.5% of the weed in the blank control area)
- Herbicidal Activity Barnyard grass (Barnyard grass [11]): 1
- Herbicidal Activity Piemarker (Piemarker [12]): 1
- Herbicidal Activity Green bristlegrass (green bristlegrass [13]): 2 (equivalent to 0 to 2.5% of the weed in the blank control area)
- Herbicidal Activity Amaranthus retroflexus (Amaranthus retroflexus [14]): 2 (equivalent to 0 to 2.5% of the weed in the blank control area)
- Herbicidal Activity Digitaria sanguinalis (Digitaria sanguinalis [15]): 2 (equivalent to 0 to 2.5% of the weed in the blank control area)
- Herbicidal Activity Humulus scandens (Humulus scandens [16]): 3 (equivalent to 2.6 to 5% of the weed in the blank control area)
- Herbicidal activity 15 days after treatment Cyperaceae (Cyperaceae; 15 days after treatment): 1
- Herbicidal activity 30 days after treatment Cyperaceae (Cyperaceae; 30 days after treatment): 2 (equivalent to 0 to 2.5% of the weed in the blank control area)
- Herbicidal activity 15 days after treatment Broadleaf weed (Broadleaf weed; 15 days after treatment): 2 (equivalent to 0 to 2.5% of the weed in the blank control area)
- Herbicidal activity 30 days after treatment Broadleaf weed (Broadleaf weed; 30 days after treatment): 2 (equivalent to 0 to 2.5% of the weed in the blank control area)
- Herbicidal activity 15 days after treatment Gramineae (Gramineae; 15 days after treatment): 2 (equivalent to 0 to 2.5% of the weed in the blank control area)
- Herbicidal activity 30 days after treatment Gramineae (Gramineae; 30 days after treatment): 2 (equivalent to 0 to 2.5% of the weed in the blank control area)
